Values quoted from earlier work in patent publication US20100297230A1, “COMPOSITIONS AND METHODS FOR PROSTATE AND MENSTRUAL/MENOPAUSAL RELATED HEALTH” (priority 2009, published 2010).
“Also recorded” adds a separate entry of the source. Like-named read-outs stand apart in the source and are kept apart here.

Legend:
[1] = in vivo
[2] = system: COX-2 expression
[3] = system: human prostate carcinoma PC-3 cells; conditions: in vitro
[4] = single dose of Epimedium tea
[5] = system: human prostatic smooth muscle cells
[6] = system: late postmenopausal women; conditions: daily 60 mg icariin, 15 mg daidzein, 3 mg genistein; over 25 months; compared to placebo
[7] = target: estrogen receptor beta (Homo sapiens, UniProt Q92731)
Sequence of estrogen receptor beta (Q92731 whole entry, species assumed): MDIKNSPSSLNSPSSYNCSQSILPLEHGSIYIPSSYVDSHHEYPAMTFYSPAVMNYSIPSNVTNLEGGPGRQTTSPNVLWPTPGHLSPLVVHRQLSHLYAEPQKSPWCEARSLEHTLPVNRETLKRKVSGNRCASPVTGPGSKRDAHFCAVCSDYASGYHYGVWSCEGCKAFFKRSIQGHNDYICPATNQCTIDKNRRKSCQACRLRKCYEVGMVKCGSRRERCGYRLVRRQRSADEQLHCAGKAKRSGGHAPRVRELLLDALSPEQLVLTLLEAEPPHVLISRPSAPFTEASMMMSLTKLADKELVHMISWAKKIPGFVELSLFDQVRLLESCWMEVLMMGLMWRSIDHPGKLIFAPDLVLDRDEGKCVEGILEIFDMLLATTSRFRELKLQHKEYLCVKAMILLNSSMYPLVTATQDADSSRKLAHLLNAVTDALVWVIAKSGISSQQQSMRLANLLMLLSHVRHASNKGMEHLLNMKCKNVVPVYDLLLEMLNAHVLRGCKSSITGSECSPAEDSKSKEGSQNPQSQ

[8] = target: T1, primary alpha receptor (estrogen receptor) (Homo sapiens, UniProt P03372)
T1 sequence (P03372 1-595): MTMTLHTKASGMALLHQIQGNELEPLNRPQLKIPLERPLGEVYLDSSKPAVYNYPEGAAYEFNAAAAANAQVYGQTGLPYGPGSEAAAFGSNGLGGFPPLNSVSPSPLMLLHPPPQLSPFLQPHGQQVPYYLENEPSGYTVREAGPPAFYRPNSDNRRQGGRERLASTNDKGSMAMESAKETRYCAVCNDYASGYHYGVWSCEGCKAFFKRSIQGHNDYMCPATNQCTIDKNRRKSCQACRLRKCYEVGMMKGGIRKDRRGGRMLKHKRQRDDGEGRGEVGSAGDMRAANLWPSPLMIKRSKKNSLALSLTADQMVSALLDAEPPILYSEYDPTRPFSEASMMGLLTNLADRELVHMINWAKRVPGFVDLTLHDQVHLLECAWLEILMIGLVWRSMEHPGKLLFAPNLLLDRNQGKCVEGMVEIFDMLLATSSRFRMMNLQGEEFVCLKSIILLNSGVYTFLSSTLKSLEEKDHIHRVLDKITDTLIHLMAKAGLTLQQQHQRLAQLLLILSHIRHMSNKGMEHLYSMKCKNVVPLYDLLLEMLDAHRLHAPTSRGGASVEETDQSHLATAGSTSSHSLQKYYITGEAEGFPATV

[9] = system: rats; conditions: for prostate and seminal vesicle size: 270 mg/kg daily injection, compared to all other treatments, P<0.05
[10] = male and female subjects 18-55 yrs
[11] = system: MMP2; conditions: PC-3 cells
[12] = system: MMP9; conditions: PC-3 cells
[13] = system: rats with prostatic hyperplasia; conditions: testosterone enanthate treated rats; 0.1 mg benzylglucosinolate

## O=C(/C=C/c1ccc(O)c(O)c1)O[C@H](Cc1ccc(O)c(O)c1)C(=O)O [Rosmarinic acid]
[1]
  metabolic conversion: converted to 3-O-methyl rosmarinic acid
  time to enter the system after administration: ≤ 20 min
[2]
  AP-1-dependent activation of COX-2 expression: potential preventative effects

## COc1ccc(-c2oc3c(CC=C(C)C)c(O)cc(O)c3c(=O)c2O)cc1 [icaritin]
[3]
  growth of prostate carcinoma cells: inhibit prostate cancer cell growth
[3]; listed as Icaritin
  growth of prostate carcinoma cells: strongly inhibited growth
[4]
  time of peak icaritin level: 8 h
[5]
  apoptosis of human prostatic smooth muscle cells: inducing apoptosis; also recorded: induces apoptosis
  cyclin D1 and CDK4 expression: decreases
  growth of human prostatic smooth muscle cells: reduces the growth

## COc1ccc(-c2oc3c(CC=C(C)C)c(O[C@@H]4O[C@H](CO)[C@@H](O)[C@H](O)[C@H]4O)cc(O)c3c(=O)c2O[C@@H]2O[C@@H](C)[C@H](O)[C@@H](O)[C@H]2O)cc1 [icariin, 5-hydroxy-2-(4-methoxyphenyl)-8-(3-methylbut-2-enyl)-7-[(2S,3R,4S,5S,6R)-3,4,5-trihydroxy-6-(hydroxymethyl)oxan-2-yl]oxy-3-[(2S,3R,4R,5R,6S)-3,4,5-trihydroxy-6-methyloxan-2-yl]oxychromen-4-one]
[6]
  bone mass density / bone loss: increases bone density
[4]; 12.6 mg icariin ingested
  peak serum icariin concentration: 2.1 ng/mL
[7]
  interaction with estrogen receptor beta: interact with estrogen receptor beta; also recorded: targets the beta receptor over the alpha receptor
[8]
  interaction with estrogen receptor alpha: not with the primary alpha receptor

## O=c1c(O)c(-c2ccc(O)c(O)c2)oc2cc(O)cc(O)c12 [quercetin, 2-(3,4-dihydroxyphenyl)-3,5,7-trihydroxy-4H-chromen-4-one]
[9]
  prostate and seminal vesicle size: decreased significantly
[9]; listed as Quercetin
  prostate and seminal vesicle size: effective at reducing prostate size
[9]; 270 mg/kg group
  sperm quality and sexual organ function: positive effect
[10]
  peak plasma concentration: 463 ng/mL
  time to peak plasma concentration: 3.5 h
[11]; P<0.05
  MMP2 activity: significantly inhibited
[11]; dose dependent manner
  MMP2 expression: inhibited
[12]; P<0.05
  MMP9 activity: significantly inhibited
[12]; dose dependent manner
  MMP9 expression: inhibited

## O=S(=O)(O)O/N=C(\Cc1ccccc1)S[C@@H]1O[C@H](CO)[C@@H](O)[C@H](O)[C@H]1O [Benzylglucosinolate]
[13]
  prostate weight: as effective at reducing prostate weight as 0.1 mg finasteride

## CC(C)=CCc1c(O)cc(O)c2c(=O)c(O)c(-c3ccc(O)cc3)oc12 [Desmethylicaritin]
[4]; desmethyl-icaritin 0.19 mg
  serum desmethylicaritin: not detected
